In brackets after ≈: the same amount, converted by molar mass. Activity calls are given as the source filed them. The calls are words filed in the database; no cut-off is given here.
Tests used:
Format in all cases: functional, organism-based
[1] = tested on: Bacillus anthracis; assay: Antimicrobial activity against Bacillus anthracis MurA1 AS clone 2G2 assessed as growth inhibition in presence of xylose by antisense-induced hypersensitive testing
[2] = tested on: Bacillus anthracis; assay: Antimicrobial activity against Bacillus anthracis metRS1 AS 1H1 assessed as growth inhibition in presence of xylose by antisense-induced hypersensitive testing
[3] = tested on: Bacillus anthracis; assay: Antimicrobial activity against Bacillus anthracis MurA1 AS clone 2G2 assessed as growth inhibition in absence of xylose by antisense-induced hypersensitive testing
[4] = Bacillus anthracis, MurA1 AS clone 2G2, read-out: IC50

CCN1CCN(C(=O)N[C@@H](C(=O)N[C@@H]2C(=O)N3[C@@H]2SC(C)(C)[C@@H]3C(=O)O)c2ccccc2)C(=O)C1=O
inhibition [1]: Active

CN[C@H](CC(C)C)C(=O)N[C@H]1C(=O)N[C@@H](CC(N)=O)C(=O)N[C@H]2C(=O)N[C@H]3C(=O)N[C@H](C(=O)N[C@H](C(=O)O)c4cc(O)cc(O)c4-c4cc3ccc4O)[C@H](O)c3ccc(c(Cl)c3)Oc3cc2cc(c3O[C@@H]2O[C@H](CO)[C@@H](O)[C@H](O)[C@H]2O[C@H]2C[C@](C)(N)[C@H](O)[C@H](C)O2)Oc2ccc(cc2Cl)[C@H]1O
inhibition [1]: Active

Cc1onc(-c2ccccc2)c1C(=O)N[C@@H]1C(=O)N2[C@@H]1SC(C)(C)[C@@H]2C(=O)O
inhibition [1]: Active

O=C(O)c1ccc(OCc2nc3ccccc3[nH]2)c(OCc2ccc(Cl)cc2Cl)c1
inhibition [2]: Active

C[C@@H]1O[C@@H]1P(=O)(O)O [FOSFOMYCIN]
IC50 [3, 4]: 126 µg/mL (≈ 913 µM) | IC50 [1, 4]: 18 µg/mL

CN(C)[C@@H]1C(O)=C(C(N)=O)C(=O)[C@@]2(O)C(O)=C3C(=O)c4c(O)cccc4[C@@](C)(O)[C@H]3C[C@@H]12 [TETRACYCLINE]
IC50 [3]: Not Active | IC50 [1]: Not Active
